Patent publication US20070292478A1 (priority 2004, published 2007)

Legend:
prostate tumours = details: clinical trial, cited from earlier work
[1] = maximal tolerated dose of Rhodamine 123 delivered intravenously in man; assay type: in vivo; details: 70 kg patient, each injection
Protocol: Because inhibitors of oxidative phosphorylation are toxic to a subject in the doses needed for efficacy via the systemic route, such inhibitors have been largely overlooked for effective treatment of conditions such as cancer. […] It is also known that the maximal tolerated dose of Rhodamine 123 delivered intravenously in man is 95 mg/m^2. For a 70 kg patient, the tolerated dose of systemically delivered rhodamine is about 150 mg for each injection.

tumour = test: local delivery of rhodamine on an implant; assay type: in vivo; details: delivering 40 or 50 mg locally on implant
From the text: Furthermore, the lethal dose can be greatly exceeded. […] Such a dose, delivered systemically, would require 100 g of rhodamine, more than 1000 times the lethal dose.

rhodamine
effect on prostate tumours (prostate tumours; maximum non-lethal systemic doses): did not shown any significant effect | accumulation in the prostate of the patients (prostate tumours; systemic delivery): accumulation was confirmed | tolerated dose of systemically delivered rhodamine [1]: about 150 mg | tumour outcome (tumour): leads to tumour death
